Where two headings read alike, the source gives them in different places.
Tests used:
S. aureus ATCC 29213 = assay: Inhibition of biofilm formation (crystal violet); format: cell-based; conditions: Staphylococcus aureus, ATCC29213, 48 h
S. aureus 272123 [1] = assay: Inhibition of biofilm formation (crystal violet); format: cell-based, Staphylococcus aureus; conditions: read-out: Biofilm Inhibition (%) ± SD
Protocol: Efflux mechanisms are one of the factors that can lead to biofilm-mediated resistance, along with slow growth and reduced penetration due to production of extracellular polysaccharides. […] Additionally, they can also modulate QS, through an influence in the transport of QS signal molecules. Thioxanthones 2–18 were tested for their potential for inhibiting biofilm formation by S. aureus ATCC 29213 and the multi-resistant S. aureus 272123. The biofilm inhibition, presented in percentage (%), was calculated based on the mean of absorbance units. Reserpine, which has previously been described as both an efflux pump inhibitor and an inhibitor of biofilm formation in Gram-positive bacteria was used as control in both strains.
The thioxanthone derivatives were tested for their ability to decrease the formation of biofilm. The bacterial strains used were the Gram-positive S. aureus […] and S. aureus 272123. The detection of the biofilm formation was carried out using the dye crystal violet (CV; 0.1% v/v). The initial inoculum was incubated in TSB overnight, and then diluted to an OD600 of 0.1. […] This meant that compound 12 was added at 50 µM, while the rest of the compounds were added at the concentration of 100 µM. The final volume in each well was 200 µL. Reserpine was used as a positive control, as it was the same compound used in the efflux pump inhibition assay and it has shown activity in the inhibition of biofilm formation in S. aureus strains. The plates were incubated at 30 °C for 48 h, with gentle stirring (100 rpm). After this incubation period, the TSB medium was discarded, and the plates were washed with tap water to remove unattached cells. Afterwards, 200 µL of a 0.1% v/v CV solution were added to the wells and incubated for 15 min at room temperature. Then, the CV solution was removed from the wells, and the plates were washed again with tap water, and 200 µL of a 70% ethanol solution was added to the wells. The biofilm formation was determined by measuring the OD600 using a Multiscan EX ELISA plate reader (Thermo Labsystems, Cheshire, WA, USA). The anti-biofilm effect of the compounds was expressed in the percentage (%) of decrease of biofilm formation.

SE03 = assay: Antibacterial activity, broth microdilution MIC; format: cell-based, Salmonella enterica serovar Typhimurium SL1344; conditions: Salmonella enterica, read-out: Minimum Inhibitory Concentration (MIC)
Excerpt: (§1) The referred library of thioxanthones was initially tested for their antimicrobial activity against six bacterial strains: the Gram-negative Escherichia coli ATCC 25922, Pseudomonas aeruginosa ATCC 27853 and Salmonella enterica serovar Typhimurium SL1344 (SE03), with the acrA gene deleted, and the Gram-positive Staphylococcus aureus ATCC 29213, Enterococcus faecalis ATCC 29212 and the methicillin and ofloxacin-resistant clinical isolate S. aureus 272123. For the synergy assay, two clinically relevant isolates were used: the extended-spectrum β-lactamase (ESBL)-producing E. coli SA/2 [23] and the vancomycin-resistant E. faecalis (VRE) B3/101 [23]. The antibiotics used were cefotaxime (CTX) and vancomycin (VAN), respectively.
(§2) The minimum inhibitory concentration (MIC) for each compound was determined by broth microdilution method in a 96-well plate according to the Clinical and Laboratory Standard Institute (CLSI) guidelines. The medium used was MHB II. The concentrations tested ranged from 100 µM to 0.195 µM and were prepared from a stock solution of 10 mM in DMSO, for S. aureus 272123 and SE03; for the other strains, the concentrations tested ranged from 64 µg/mL to 4 µg/mL and were prepared from a stock solution of 10 mg/mL in DMSO. DMSO was used in subinhibitory concentrations (1% v/v). The MIC was determined by visual inspection.

S. aureus 272123 [2] = assay: Real-time ethidium bromide accumulation assay (efflux pump inhibition); format: cell-based, Staphylococcus aureus; parameters: key: RFI = (RFtreated − RFuntreated)/RFuntreated at minute 60; conditions: compounds 50 µM, reserpine 25 µM, minute 60, EB 1 µg/mL
Protocol: The relative fluorescence index (RFI) was calculated based on the means of relative fluorescence units, and theses RFIs are depicted in Table 4.
The compounds were evaluated for their ability to inhibit the efflux of EB, an efflux pump substrate, in Salmonella enterica serovar Typhimurium SE03 and S. aureus 272123 strains, through real-time fluorimetry, monitoring the intracellular accumulation of EB, an efflux pump substrate. This was determined by the automated method using a CLARIOstar Plus plate reader (BMG Labtech, Ortenberg, Germany). Reserpine and CCCP were applied at 25 µM as positive controls, and the solvent DMSO was applied at 1% v/v. The bacterial strains were incubated in an appropriate culture media (TSB–S. aureus 272123; LB-B–SE03) at 37 °C until they reached an optical density (OD) of 0.6 at 600 nm. The culture was centrifuged at 13,000× g for 3 min, and the pellet was washed and resuspended with phosphate buffered saline (PBS, pH 7.4). The suspension was centrifuged again in the same conditions and resuspended in PBS.
Then, 50 µL of this solution were transferred into a 96-well black microtiter plate (Greiner Bio-One Hungary Kft, Mosonmagyaróvár, Fertősor, Hungary), and 50 µL of bacterial suspension (OD600 = 0.6) were added to each well. The plates were placed into the CLARIOstar plate reader, and the fluorescence was monitored at excitation and emission wavelengths of 530 nm and 600 nm, respectively, every minute for one hour on a real-time basis. From the real-time data, the activity of the compounds, namely the relative fluorescence index (RFI) of the last time point (minute 60) of the EB accumulation assay, was calculated according to the following equation:(1) RFI=RFtreated−RFuntreated/RFuntreated where RFtreated is the relative fluorescence (RF) at the last time point of EB accumulation curve in the presence of the compound, and RFuntreated is the RF at the last time point of the EB accumulation curve of the untreated control, having only the solvent (DMSO) control. The accumulation curves were designed using Microsoft Excel®. The samples were tested in triplicate, and the RFI presented comes from the average of these three values. The accumulation graphs present the mean of the RF at the last time point. The standard deviation (SD) was calculated automatically and included in the RF graphs.

E. coli ATCC 25922 = assay: Antibacterial activity, broth microdilution MIC; format: cell-based; conditions: Escherichia coli, ATCC25922, read-out: Minimum Inhibitory Concentration (MIC)
Excerpt: as §1, §2

P. aeruginosa ATCC 27853 = assay: Antibacterial activity, broth microdilution MIC; format: cell-based; conditions: Pseudomonas aeruginosa, ATCC27853, read-out: Minimum Inhibitory Concentration (MIC)
Excerpt: as §1, §2

[3] = S. aureus ATCC 29213, compounds 100 µM (compound 12 at 50 µM), read-out: Biofilm Inhibition (%) ± SD
[4] = Staphylococcus aureus, S. aureus 272123, compounds 100 µM (compound 12 at 50 µM), 48 h

| Compound | inhibition at 100 µM (S. aureus ATCC 29213; [3]) [%] | inhibition at 100 µM (S. aureus 272123 [1]; [4]) [%] | MIC (SE03) [µM] | RFI ± SD (S. aureus 272123 [2]) | inhibition at 100 µM (S. aureus ATCC 29213; read-out: Biofilm Inhibition (%) ± SD, S. aureus ATCC 29213, compounds 100 µM (compound 12 at 50 µM)) [%] | inhibition at 100 µM (S. aureus 272123 [1]; Staphylococcus aureus, 272123, 48 h) [%] | MIC (E. coli ATCC 25922) [µM] | MIC (P. aeruginosa ATCC 27853) [µM] |
| --- | --- | --- | --- | --- | --- | --- | --- | --- |
| CCCOc1ccc(NCCN(CC)CC)c2c(=O)c3ccccc3sc12 [Compound 2] | 0.53 ± 1.05 | 81.1 ± 1.18 | > 100 | 0.75 ± 0.08 | – | – | – | – |
| CCCOc1ccc(N2CCCCC2)c2c(=O)c3ccccc3sc12 [Compound 3] | – | – | > 100 | 1.50 ± 0.04 | > 90 | 93.49 ± 0.33 | – | – |
| CCCOc1ccc(Nc2nc(C)cc(C)n2)c2c(=O)c3ccccc3sc12 [Compound 8, 1-[(4,6-Dimethylpyrimidin-2-yl)amino]-4-propoxy-9H-thioxanthen-9-one] | 0 | 0 | > 100 | 0.24 ± 0.07 | – | – | > 100 | > 100 |
| CCCOc1ccc(N2CCNC(=O)C2)c2c(=O)c3ccccc3sc12 [Compound 9, 4-(9-Oxo-4-propoxy-9H-thioxanthen-1-yl)piperazin-2-one] | 5.18 ± 1.02 | 31.5 ± 8.99 | > 100 | 0.14 ± 0.02 | – | – | > 100 | > 100 |
| CCCOc1ccc(NCCO)c2c(=O)c3ccccc3sc12 [Compound 10, 1-[(2-Hydroxyethyl)amino]-4-propoxy-9H-thioxanthen-9-one] | 0 | 55.2 ± 4.2 | > 100 | 4.71 ± 0.78 | – | – | > 100 | > 100 |
| CCCOc1ccc(NCCN2CCOCC2)c2c(=O)c3ccccc3sc12 [Compound 11, 1-[(2-Morpholinoethyl)amino]-4-propoxy-9H-thioxanthen-9-one] | 0 | 20.2 ± 4 | > 100 | 0.89 ± 0.06 | – | – | > 100 | > 100 |
| CCCOc1ccc(NS(=O)(=O)c2ccc(C(=O)O)cc2)c2c(=O)c3ccccc3sc12 [Compound 12, 4-[N-(9-Oxo-4-propoxy-9H-thioxanthen-1-yl)sulfamoyl]benzoic acid] | ~53 | – | 50 | 0.29 ± 0.19 | – | – | > 100 | > 100 |
| CCCOc1ccc(NS(=O)(=O)c2ccc(N)cc2)c2c(=O)c3ccccc3sc12 [Compound 13, 4-Amino-N-(9-oxo-4-propoxy-9H-thioxanthen-1-yl)benzenesulfonamide] | 0.42 ± 1.36 | 72 ± 6.66 | > 100 | −0.18 ± 0.05 | – | – | > 100 | > 100 |
| CCCOc1ccc(Br)c2c(=O)c3ccccc3sc12 [Compound 14, 1-Bromo-4-propoxy-9H-thioxanthen-9-one] | 0 | 2.46 ± 0.72 | > 100 | 1.13 ± 0.13 | – | – | > 100 | > 100 |
| CCCOc1ccc2ncnc3c2c1Sc1ccccc1-3 [Compound 15] | 0 | 76 ± 2.06 | > 100 | −0.07 ± 0.50 | – | – | > 100 | > 100 |
| CCCOc1ccc2nc(N)nc3c2c1Sc1ccccc1-3 [Compound 16] | 0 | 73.6 ± 1.8 | > 100 | 0.96 ± 0.27 | – | – | > 100 | > 100 |
| CCCOc1ccc2nc(NCc3ccccc3Cl)nc3c2c1Sc1ccccc1-3 [Compound 17] | 0 | 6.32 ± 4.32 | > 100 | 9.69 ± 0.95 | – | – | > 100 | > 100 |
| CCCOc1ccc2c3c(n/c(=N\c4ccccc4C)n2-c2ccccc2C)-c2ccccc2Sc13 [Compound 18] | 19.7 ± 7.46 | 1.62 ± 2.43 | > 100 | 0.20 ± 0.03 | – | – | > 100 | > 100 |

Source: article PMC8232621, “Antimicrobial Activity of a Library of Thioxanthones and Their Potential as Efflux Pump Inhibitors” (Pharmaceuticals, 2021)
